Measured values: patent publication US20180028526A1, “NALMEFENE FOR REDUCTION OF ALCOHOL CONSUMPTION IN SPECIFIC TARGET POPULATIONS” (H. Lundbeck A/S, priority 2012, published 2018)

Legend:
alcohol dependence [1] = conditions: 5, 20 and 40 mg daily doses; Anton et al. 2004; cited from earlier work
alcohol dependence [2] = conditions: 20 mg taken when the patient experienced a craving for alcohol; Karhuvaara et al. 2007; cited from earlier work
alcohol dependence [3] = conditions: 20 to 80 mg daily oral dosing; double-blind, placebo-controlled; Mason et al. 1999; cited from earlier work
[4] = tested on: patients with alcohol dependence; experiment: Studies 12014A, 12023A and 12013A taken together (statements on all three studies); type: in vivo, human; conditions: for Difference between nalmefene and placebo in HDDs and TAC, compared with total study population: all three studies
Text: The efficacy of nalmefene in the reduction of alcohol consumption in patients with alcohol dependence (DSM-IV) has been evaluated in two efficacy studies (Study 12014A and Study 12023A) and one safety study (Study 12013A) as described in the examples. All three studies were randomized, double blind, parallel-group and placebo-controlled.
The studies included outpatients, aged […], with a primary diagnosis of alcohol dependence. A patient was eligible for participation in the study if, in the 4 weeks preceding the Screening Visit (Baseline period), he/she had >6 HDDs, at least a medium DRL (calculated as mean daily alcohol consumption in g/day i.e. >40 g/day for men and >20 g/day for women calculated as mean daily alcohol consumption over the 4 week period preceding the screening visit), and ≦14 consecutive abstinent days. The timeline followback (TLFB) method was used to obtain estimates of the patient's daily drinking.
At the initial visit (screening visit), the patients' clinical status, social situation, and alcohol consumption pattern were evaluated. After a 1- to 2-week observation period the drinking risk level was re-assessed by calculating mean daily alcohol consumption in g/day over the 1- to 2-week observation period, and treatment with nalmefene was initiated together with counseling with focus on motivating the patients to adhere to the treatment and to change their drinking behavior.
The efficacy of nalmefene was measured using two co-primary endpoints: the change in the monthly number of heavy drinking days (HDDs) and the change in the mean daily total alcohol consumption (TAC) per month (=28 days).
The efficacy of nalmefene on the reduction of alcohol consumption in patients with alcohol dependence (DSM-IV) was evaluated in two efficacy studies (Study 12014A and Study 12023A). Both studies were randomised, double blind, two-parallel group, placebo controlled, and after 6 months of treatment, patients receiving nalmefene were re-randomised to receive either placebo or nalmefene in a 1 month run out period. The efficacy of nalmefene was also evaluated in a randomised, double blind, two parallel group, placebo controlled 1 year safety study (Study 12013A). The studies included 1941 patients, 1144 of whom were treated with nalmefene 18 mg in an as-needed dosing regimen.
The efficacy of nalmefene was measured using two co-primary endpoints: the change in the monthly number of heavy drinking days (HDDs) and the change in the mean daily total alcohol consumption (TAC) per month (=28 days). A HDD was defined as a day with a consumption ≧60 g alcohol for men and 40 g for women. The change in HDD and TAC over time in patients treated with nalmefene or placebo is furthermore reflected in FIGS. 1a and 1b-12a and 12b.

C=C1CC[C@@]2(O)[C@H]3Cc4ccc(O)c5c4[C@@]2(CCN3CC2CC2)[C@H]1O5 [nalmefene, 17-(cyclopropylmethyl)-4,5-alpha-epoxy-6-methylenemorphinan-3,14-diol]
Superiority over placebo in the management of alcohol dependence (alcohol dependence [1]): no evidence of superiority | Effect over placebo in the management of alcohol dependence (alcohol dependence [2]): good effect | Effect in the management of alcohol dependence (alcohol dependence [3]): good effect | Difference between nalmefene and placebo in HDDs and TAC, compared with total study population ([4]; patients excluding ERs): more pronounced | Difference between nalmefene and placebo in HDDs and TAC, compared with total study population ([4]; patients with High DRL at baseline): more pronounced | Difference between nalmefene and placebo in HDDs and TAC, compared with total study population ([4]; patients with High DRL at baseline and randomization): more pronounced | Reducing the number of HDDs and TAC versus placebo ([4]; month 6, two 6 month efficacy studies and 12 month safety study, total study population): superior to placebo
